Reference: patent publication US20140357487A1, “PLANTS HAVING INCREASED TOLERANCE TO HERBICIDES” (BASF SE, priority 2011, published 2014)

Tests used:
[1] = test system: transgenic soybean plants, Arabidopsis HPPD, event SDS-9857; assay: Greenhouse testing of transgenic soybean plants, Arabidopsis HPPD; type: in vivo, Glycine max; conditions: soybean SDS-9857, 5 days after herbicide treatment, average of 8 T1
Source text: Various methods for the production of stably transformed plants are well known in the art. Coumarone-derivative herbicide tolerant soybean (Glycine max) or corn (Zea mays) plants can be produced by a method described by Olhoft et al. (US patent 2009/0049567). Briefly, HPPD or HST encoding polynucleotides are cloned into a binary vector using standard cloning techniques as described by Sambrook et al. (Molecular cloning (2001) Cold Spring Harbor Laboratory Press). The final vector construct contains an HPPD or HST encoding sequence flanked by a promoter sequence (e.g. the ubiquitin promoter (PcUbi) sequence) and a terminator sequence (e.g. the nopaline synthase terminator (NOS) sequence) and a resistance marker gene cassette (e.g. AHAS) (FIG. 2). Optionally, the HPPD or HST gene can provide the means of selection. Agrobacterium-mediated transformation is used to introduce the DNA into soybean's axillary meristem cells at the primary node of seedling explants. After inoculation and co-cultivation with Agrobacteria, the explants are transferred to shoot induction medium without selection for one week. The explants are subsequently transferred to shoot induction medium with 1-3 μM imazapyr (Arsenal) for 3 weeks to select for transformed cells. Explants with healthy callus/shoot pads at the primary node are then transferred to shoot elongation medium containing 1-3 μM imazapyr until a shoot elongates or the explant dies. After regeneration, transformants are transplanted to soil in small pots, placed in growth chambers (16 hr day/8 hr night; 25° C. day/23° C. night; 65% relative humidity; 130-150 mE m−2 s−1) and subsequently tested for the presence of the T-DNA via Taqman analysis. After a few weeks, healthy, transgenic positive, single copy events are transplanted to larger pots and allowed to grow in the growth chamber. Transformation of corn plants is done by a method described by McElver and Singh (WO 2008/124495). Plant transformation vector constructs containing HPPD or HST sequences are introduced into maize immature embryos via Agrobacterium-mediated transformation. Transformed cells are selected in selection media supplemented with 0.5-1.5 μM imazethapyr for 3-4 weeks. Transgenic plantlets are regenerated on plant regeneration media and rooted afterwards. Transgenic plantlets are subjected to TaqMan analysis for the presence of the transgene before being transplanted to potting mixture and grown to maturity in greenhouse. Arabidopsis thaliana is transformed with HPPD or HST sequences by floral dip method as described by McElver and Singh (WO 2008/124495). Transgenic Arabidopsis plants are subjected to Tag Man analysis for analysis of the number of integration loci. Transformation of Oryza sativa (rice) are done by protoplast transformation as described by Peng et al. (U.S. Pat. No. 6,653,529)
Transgenic plants expressing heterologous HPPD or HST enzymes are tested for tolerance against coumarone-derivative herbicides in greenhouse experiments.
For post emergence treatment, the test plants are first grown to a height of 3 to 15 cm, depending on the plant habit, and only then treated with the herbicides. For this purpose, the test plants are either sown directly and grown in the same containers, or they are first grown separately and transplanted into the test containers a few days prior to treatment.
Depending on the species, the plants are kept at 10-25° C. or 20-35° C. […] During this time, the plants are tended and their response to the individual treatments is evaluated. […] Tolerance to coumarone-derivative herbicides can also be assessed in Arabidopsis. In this case transgenic Arabidopsis thaliana plants are assayed for improved tolerance to coumarone-derivative herbicides in 48-well plates. Seeds are surface sterilized by stirring for 5 min in ethanol+water (70+30 by volume), rinsing one time with ethanol+water (70+30 by volume) and two times with a sterile, deionized water. […]

[2] = test system: Sorghum HPPD; assay: HPPD activity assay, Sorghum HPPD; type: biochemical; conditions: normalized on Arabidopsis wild-type HPPD
Description: (§1) HPPD produces homogentisic acid and CO2 from 4-hydroxyphenylpyruvate (4-HPP) and O2. The activity assay for HPPD is based on the analysis of homogentisic acid by reversed phase HPLC.
(§2) The assay mixture can contain 150 mM potassium phosphate buffer pH 7.0, 50 mM L-ascorbic acid, 1 μM FeSO4 and 7 μg of purified enzyme in a total volume of 1 ml.
Inhibitors are dissolved in DMSO (dimethylsulfoxide) to a concentration of 20 mM or 0.5 mM, respectively. From this stock solution serial five-fold dilutions are prepared in DMSO, which are used in the assay. The respective inhibitor solution accounts for 1% of the assay volume. Thus, final inhibitor concentrations range from 200 μM to 2.5 nM or from 5 μM to 63 pM, respectively. After a preincubation of 30 min the reaction is started by adding 4-HPP to a final concentration of 0.1 mM. The reaction is allowed to proceed for 120 min at room temperature. The reaction is stopped by addition of 100 μl of 4.5 M phosphoric acid.
Activities are normalized by setting the uninhibited enzyme activity to 100%. IC50 values are calculated using non-linear regression.
The assay mixture can contain 150 mM potassium phosphate buffer pH 7.0, 50 mM L-ascorbic acid, 100 μM Catalase (Sigma-Aldrich), 1 μM FeSO4 and 0.2 units of purified HPPD enzyme in a total volume of 505 μl. […]
(§3) Inhibitors are dissolved in DMSO (dimethylsulfoxide) to a concentration of 0.5 mM. […] IC50 values are calculated using non-linear regression.
Using methods which are described in the above examples or well known in the art, purified, recombinant wildtype HPPD enzymes are characterized with respect to their kinetic properties and sensitivity towards HPPD inhibiting herbicides. Apparent michaelis constants (Km) and maximal reaction velocities (Vmax) are calculated by non-linear regression with the software GraphPad Prism 5 (GraphPad Software, La Jolla, USA) using a substrate inhibition model. […] Weighted means (by standard error) of Km and […] values are calculated from at least three independent experiments. […]

[3] = test system: Blepharisma HPPD; assay: HPPD activity assay, Blepharisma HPPD; type: biochemical; conditions: normalized on Arabidopsis wild-type HPPD
Description: as §1, §2
Inhibitors are dissolved in DMSO (dimethylsulfoxide) to a concentration of 20 mM or 0.5 mM, respectively. From this stock solution serial five-fold dilutions are prepared in DMSO, which are used in the assay. The respective inhibitor solution accounts for 1% of the assay volume. […]
Activities are normalized by setting the uninhibited enzyme activity to 100%. IC50 values are calculated using non-linear regression. […]
as §3
Using methods which are described in the above examples or well known in the art, purified, recombinant wildtype HPPD enzymes are characterized with respect to their kinetic properties and sensitivity towards HPPD inhibiting herbicides. Apparent michaelis constants (Km) and maximal reaction velocities (Vmax) are calculated by non-linear regression with the software GraphPad Prism 5 (GraphPad Software, La Jolla, USA) using a substrate inhibition model. […]

How did the “Injury evaluation, scale of 1-100, bleaching phenotype” value (from here on “Injury evaluation, scale”) ([1]; 2.5 g/ha) turn out when `CC1(C)c2cccnc2C(O)=C(c2ccc(Cl)nc2Cl)S1(=O)=O` [Inhibitor 2, 7-(2,6-dichloro-3-pyridyl)-5,5-dimethyl-6,6-dioxo-thiopyrano[4,3-b]pyridin-8-ol] was run?
The value was 1.

What about the “Injury evaluation, scale” value ([1]; 10 g/ha) of the same compound?
The value was 1.

And the “Injury evaluation, scale” value ([1]; 40 g/ha)?
Its value is 2.

And the “Normalized tolerance index TI” value [2]?
The value was 1.2.

`Cc1c(C(=O)c2cnn(C)c2O)ccc(S(C)(=O)=O)c1C1=NOCC1` [Topramezone, reference compound] was tested. Which “Injury evaluation, scale” value ([1]; 6.25 g/ha) did it give?
The value was 1.

And the “Injury evaluation, scale” value ([1]; 25 g/ha)?
The value was 10.

What about the “Injury evaluation, scale” value ([1]; 100 g/ha) of the same compound?
Its value is 19.

With `COCCOCc1c(Cl)ccc(C2=C(O)c3ncccc3C(C)(C)S2(=O)=O)c1Cl` [Inhibitor 3, 7-[2,4-dichloro-3-(2-methoxyethoxymethyl)phenyl]-5,5-dimethyl-6,6-dioxo-thiopyrano[4,3-b]pyridin-8-ol] as the compound, how does the “Normalized tolerance index TI” value [3] read?
The value was 0.5.

For `CC1=NOC(c2c(Cl)ccc(C3=C(O)c4ncccc4C(C)(C)S3(=O)=O)c2Cl)C1` (stereo not shown) [Inhibitor 1, 7-[2,4-dichloro-3-(3-methyl-4,5-dihydroisoxazol-5-yl)phenyl]-5,5-dimethyl-6,6-dioxo-thiopyrano[4,3-b]pyridin-8-ol], which “Normalized tolerance index TI” value [3] is on record?
The value was 12.4.

What about the “Normalized tolerance index TI” value [2] of the same compound?
The value was 2.1.
